# Measurements published in patent US20130253047A1 (priority 2006, published 2013).
# Tested on: H5N1
# Assay type: cell-based
row,Molecule,inhibition of H5N1 infections in mammalian cells by blocking the attachment and entry into the cells
1,O=C(O[C@@H]1Cc2c(O)cc(O)cc2O[C@@H]1c1cc(=O)c(O)c2c(O)c(O)cc([C@H]3Oc4cc(O)cc(O)c4C[C@H]3O)c2c1)c1cc(O)c(O)c(O)c1 [theaflavin-3 gallate],inhibits H5N1 infections in mammalian cells
2,O=c1c(O)cc([C@H]2Oc3cc(O)cc(O)c3C[C@H]2O)cc2c([C@H]3Oc4cc(O)cc(O)c4C[C@H]3O)cc(O)c(O)c12 [theaflavin],inhibits H5N1 infections in mammalian cells
3,(−)-epigallocatechin gallate,inhibits H5N1 infections in mammalian cells
4,theaflavin-3′-gallate,inhibits H5N1 infections in mammalian cells
5,"theaflavin-3,3′-digallate",inhibits H5N1 infections in mammalian cells
